Data taken from the NIST ThermoML archive (doi:10.1016/j.fluid.2015.12.048).
Numbers after ± are expanded uncertainties.

Legend:
[1] = Crystal
[2] = Molar enthalpy of transition or fusion; conditions: Crystal; DSC

Q: Which results are given for `Cc1ccc(C(C)C)c(O)c1` [3-methyl-6-isopropylphenol]?
A: Normal melting temperature ([1]; DTA): 49.7 ± 0.4 °C; Normal melting temperature ([1]; visual observation): 50.0 ± 0.4 °C; Molar enthalpy of transition or fusion [2]: 17.5 ± 0.43 kJ/mol

Q: For `CC(C)[C@@H]1CC[C@@H](C)C[C@H]1O` [L-menthol], which Normal melting temperature ([1]; DTA) is on record?
A: 43.6 ± 0.4 °C

Q: What about the Normal melting temperature ([1]; visual observation) of the same compound?
A: 42.8 ± 0.4 °C

Q: And the “Molar enthalpy of transition or fusion” value [2]?
A: 12.8 ± 0.36 kJ/mol

Q: With `OCc1ccccc1` [benzenemethanol] as the compound, how does the Normal melting temperature ([1]; DTA) read?
A: -15.0 ± 0.4 °C

Q: And the Normal melting temperature ([1]; visual observation)?
A: -15.0 ± 0.4 °C

Q: For `CCCCCCCCCCO` [decan-1-ol], which Normal melting temperature ([1]; DTA) is on record?
A: 7.0 ± 0.4 °C

Q: What about the Normal melting temperature ([1]; visual observation) of the same compound?
A: 7.0 ± 0.4 °C
